From patent publication US8664276B2, “Stilbene analogs and methods of treating cancer” (University of Kentucky Research Foundation, priority 2011, dated 2014)
Each block holds one compound with its values, some of them ahead of it.

Columns and labels:
[1] = system: Wnt signaling; test: TopFlash luciferase reporter assay in HEK293T cells; assay type: cell-based; details: HEK293T
Description: Luciferase and cell proliferation assay. HEK293T cells were transiently transfected in a 12-well plate with 0.2 μg of the Super8xTOPFlash reporter and 0.05 μg of Renilla luciferase reporter. Culture medium was changed after 12 h. After 6 h, cells were treated with DMSO or Wnt inhibitors for 12 h, and then treated with 25 mM LiCl or Wnt conditioned medium. After 12 h, cells were harvested and luciferase activity measured by Dual-luciferase Reporter Assay System (Promega, Madison Wis.). All conditions were done in triplicate and each experiment was carried out at least two times. For cell proliferation assay, CRC cells were treated with DMSO or inhibitors for 2d and 4d. The cell numbers and viability were analyzed by Vi-Cell Cell Viability Analyzer. To identify Wnt pathway inhibitors for CRC prevention and treatment, a number of anti-cancer agents from plants were screened using the TopFlash reporter assay. The TopFlash reporter was transfected into HEK293T cells, and the cells were treated with Wnt3A-conditioned medium in order to activate the luciferase reporter. […] To determine if resveratrol regulates β-catenin degradation, the cells were treated with 25 mM LiCl, which inhibits GSK-3 and stabilizes β-catenin. In this assay, LiCl activated the reporter more strongly than Wnt3A conditioned medium. […] Emodin is an anti-cancer agent from plants; it exists in many unpurified resveratrol products. Emodin had no effect on Wnt signaling. See Zhang et al., J. of Med. Chem. 54, 1288-1297 (2011).

[2] = target: T1, MAT2A (Homo sapiens, UniProt P31153); test: In-vitro SAM synthesis by MAT2A (LC-MS/MS); assay type: biochemical; parameters: GST (N); made in house
Description: (§1) SAM and SAH analysis by LC-MS/MS. The LC-MS/MS system consisted of two Varian ProStar 210 LC Pumps coupled with a Varian 1200L triple quadrupole mass spectrometer. The separation was performed on a Hypercarb column (50 mm×2.1 mm, […], Thermo Scientific #35003-052130). Gradient elution started with 98% solution A (0.1% formic acid in water), followed by an increase to 38% solution B (0.1% formic acid in acetonitrile) in 8 min. The column was than flushed with 90% B for 5 min and regenerated with 98% A for another 8 min. The flow rate was 0.25 mL/min. Between the 3rd and 11th min, the eluent was switched to the ion source of the mass spectrometer. The precursor product transitions for SAM (m/z 399→250), SAH (m/z 385→250) and [d-4]-SAH (m/z 389→136) were monitored. The optimized ion source parameters were: Capillary Voltage: 32 V for both SAM and SAH, Collision energy: 9 V and 7V for SAM and SAH, respectively, Needle voltage: 5000 V and the Shield voltage: 600V. Nitrogen was used as the drying gas at a temperature of 300° C. and the interface heater was set to 50° C. The drying gas and nebulizing gas were set to 20 and 50 psi, respectively.
SAM synthesis. […] purified MAT2A was incubated with 1 mM L-methionine and 1 mM ATP in […] reaction solution (50 mM Tris.Cl, 50 mM KCl, 10 mM MgCl2) for 5 min at 25° C. […] SAM was analyzed by LC-MS/MS. […]

[3] = system: Wnt target genes, Axin2 and c-Myc; test: Western blot of Wnt target proteins in LS174 CRC cells; assay type: cell-based
Description: Western blot. Western blots were performed using the following antibodies: β-catenin (Sigma, C2206), c-Myc (Epitomics, 1472-1), Axin2 (Cell Signaling, 2151), β-Actin (Sigma, A1978), TCF4 (Epitomics, 2114-1) and pygopus2 (Santa Cruz, sc-74878), Cyclin D1 (Cell signaling, 2926).
(§2) Cyclin B1 levels were decreased, whereas p21^WAF1/CIP1 levels increased, consistent with the fact that p21^WAF1/CIP1 expression is repressed by c-Myc. β-catenin levels were not affected by resveratrol. Next, the mRNA levels of β-catenin target genes were analyzed using RT-PCR. Expression of survivin, Lgr5, CD44, and c-Myc were decreased in resveratrol-treated cells.
A panel of stilbene analogs was designed and synthesized (FIGS. 2, 3, 5A and 6A). […] However, the solubility of 4d was poor and it was not effective below 10 μM concentrations (data not shown). To improve its solubility and activity, compound 4d was modified with 2′-fluoro 4e, 3′-fluoro 4f and 4′-fluoro 4g substituents (FIG. 5D). Both compounds 4e and 4f had good activity at 10 μM, (E)-4-(2-fluorostyryl)-N,N-dimethylaniline.
(§3) Western blot and cell proliferation assay. The activity of fluorinated N,N-dialkylaminostilbenes (FIDAS or FIDAS agents) on Wnt signaling activity in cancer cells were analyzed by Western blot with antibodies against Wnt target genes, such as c-Myc, Axin2. The effects of FlDAS agents on cancer cell growth were analyzed using Cell Viability Analyzer (Beckman Coulter, Vi-Cell XR). These assays have been described previously (see Zhang et al., J. of Med. Chem. 54, 1288-1297 (2011)).

[4] = system: β-catenin target genes; test: RT-PCR of β-catenin target genes in LS174 cells; assay type: cell-based; details: LS174 cells
Description: RT-PCR. LS174 cells were treated with DMSO or Wnt inhibitors. After 36 h, RNA was isolated using the RNeasy kit (Qiagen). RT-PCR was performed as described in Zhang et al., Mol Cell Biol 2006, 26, 2055-2064. The following primers were used: β-actin: 5′-CAACCGCGAGAAGATGAC-3′ (SEQ ID NO:01), 5′-AGGAAGGCTGGAAGAGTG-3′ (SEQ ID NO:02); surivivin: 5′-[…]-3′ (SEQ ID NO:03), 5′-[…]-3′ (SEQ ID NO:04); c-Myc: 5′-TGGGCTGTGAGGAGGTTTG-3′ (SEQ ID NO:05), 5′-TATGTGGAGCGGCTTCTCG-3′ (SEQ ID NO:06); Axin2: 5′-[…]-3′ (SEQ ID NO:07), 5′-[…]-3′ (SEQ ID NO:08); TCF4: 5′-[…]-3′ (SEQ ID NO:09), 5′-[…]-3′ (SEQ ID NO:10); pygopus2: 5′-GGCCGGTCTGCAAATGAAG-3′ (SEQ ID NO:11), 5′-TCCACCTCCAGTGCTGTAG-3′ (SEQ ID NO:12); Lgr5: 5′-[…]-3′ (SEQ ID NO:13), 5′-[…]-3′ (SEQ ID NO:14); CD44: 5′-[…]-3′ (SEQ ID NO:15), 5′-[…]-3′ (SEQ ID NO:16); Ki67: 5′-[…]-3′ (SEQ ID NO:17), 5′-[…]-3′ (SEQ ID NO:18).
as §2

[5] = system: LS174 CRC cells; test: CRC cell proliferation assay (Vi-Cell); assay type: cell-based
Description: Luciferase and cell proliferation assay. HEK293T cells were transiently transfected in a 12-well plate with 0.2 μg of the Super8xTOPFlash reporter and 0.05 μg of Renilla luciferase reporter. Culture medium was changed after 12 h. After 6 h, cells were treated with DMSO or Wnt inhibitors for 12 h, and then treated with 25 mM LiCl or Wnt conditioned medium. After 12 h, cells were harvested and luciferase activity measured by Dual-luciferase Reporter Assay System (Promega, Madison Wis.). All conditions were done in triplicate and each experiment was carried out at least two times. For cell proliferation assay, CRC cells were treated with DMSO or inhibitors for 2d and 4d. The cell numbers and viability were analyzed by Vi-Cell Cell Viability Analyzer.
as §3

[6] = Solubility; assay type: physicochemical
[7] = system: liver cancer cells; test: Liver cancer cell proliferation; assay type: cell-based; details: FIG. 15
Description: as §3
As previously shown, several metabolites of the halogenated stilbenes of the present disclosure were synthesized (Example 2 and FIG. 3). In this study, the effects of some of these metabolites on cell proliferation were studied.

[8] = Tolerability in mice; assay type: in vivo
Description: Therefore, as shown in this example, the halogenated stilbene analogs of the present disclosure are capable of inhibiting CRC both in vitro and in vivo. In another study, it was shown that mice could tolerate at least 200 mg/kg of a halogenated stilbene analog, FlDAS 4dd.

[9] = target: T1, MAT2A; test: Cell based SAM and SAH analysis in LS174 colon cancer cells (LC-MS/MS); parameters: endogenous in cells; host or cells: LS174T; details: 3 μM of 4dd versus 10 uM of 4r and 30 uM of resveratrol
Description: as §1
Cell based SAM analysis. […] 5 ul of supernatants were analyzed by LC-MS/MS using a modified method based on a previous publication (see Krijt et al., J Chromatogr B Analyt Technol Biomed Life Sci 877, 2061-6, (2009)). […]

[10] = system: HT29 xenografted tumors; test: HT29 tumor xenograft in nude mice, oral gavage; assay type: in vivo; details: HT29, 20 mg/kg in PEG400 by gavage
Description: Tumor xenograft in nude mice. LS174 or HT29 colon cancer cells (2×10^6) were injected subcutaneously into both flanks of 6-8 week C57BL/6J athymic nude mice as described in Zhang et al., Mol Cell Biol 2006, 26, 2055-2064. Compound 4r or 4dd was dissolved in corn oil or PEG400. The mice were treated with 20 mg/kg/day of 4r by ip injection or gavage (50 μl/mouse). Control mice were treated with same volume of corn oil or PEG400. The body weight and tumor growth were analyzed twice weekly for one month. Tumor size was measured using digital caliper. The tumor volume was calculated by the formula: V=½LW^2 (mm^3).
Xenografted nude mice were developed according to the protocol described above and in Zhang et al., J. of Med. Chem. 54, 1288-1297 (2011)). Briefly, HT29 cells were injected subcutaneously into the flanks of nude mice. The mice were then treated with 20 mg/kg compound 4dd dissolved in PEG400 by gavage. As described in Example 7, an IP injection of compound 4r dissolved in corn oil inhibited xenograft tumor growth. Here, it was also shown that the halogenated stilbenes of the present disclosure can also be dissolved in other solvents such as PEG400 and cyclodextran.

MAT2A activity in SAM synthesis [2]: inhibit MAT2A activity
Structure (SMILES): Oc1ccc(/C=C/c2cc(O)cc(O)c2)cc1 [resveratrol, trans- or (E)-3,5,4′-trihydroxystilbene, reference compound]
LiCl-induced Wnt signaling ([1]; 25 mM LiCl): strongly inhibited | Wnt-induced luciferase activity ([1]; Wnt3A-conditioned medium, 100 μM): significantly inhibited | protein levels of TCF4 and pygopus2 ([3]; CRC cells): reduced | β-catenin levels ([3]; CRC cells): not affected | Cyclin B1 levels ([3]; LS174 CRC cells): decreased | p21WAF1/CIP1 levels ([3]; LS174 CRC cells): increased | protein levels of c-Myc and Cyclin D1 ([3]; LS174 CRC cells): reduced | protein levels of Wnt/β-catenin targets at 100 μM ([3]; LS174 cells, 100 μM): reduced the protein levels | cell proliferation marker Ki67 mRNA [4]: also decreased | mRNA expression of survivin, Lgr5, CD44, and c-Myc [4]: decreased | LS174 cell proliferation ([5]; treated for 2d and 4d): inhibited cell proliferation

solubility [6]: poor
Structure (SMILES): CN(C)c1ccc(/C=C/c2ccccc2)cc1 [4d, (E)-4-styryl-N,N-dimethylaniline, reference compound]
repression of Wnt target genes at 30 μM ([3]; 30 μM, CRC cells): strongly repressed | Wnt inhibitory activity in Western blot, qualitative or relative to a comparator ([3]; CRC cells): more active than 4-methoxystilbene (4b) | effectiveness on Wnt target genes below 10 μM ([3]; below 10 μM concentrations (data not shown)): not effective

Structure (SMILES): CNc1ccc(/C=C/c2c(F)cccc2Cl)cc1 [4dd, (E)-4-(2-chloro-6-fluorostyryl)-N-methylaniline]
liver cancer cell proliferation, effectiveness versus resveratrol and 4r [7]: significantly more effective than resveratrol, as well as compound 4r | tolerated dose [8]: at least 200 mg/kg | body weights ([8]; 200 mg/kg (data not shown)): reduced after one week but were recovered to normal weight after stopping 4dd treatment | inhibition of MAT2A and reduction of SAM and SAH [9]: even more potent than 4r | effect on body weight [10]: without any adverse effect | growth of xenografted tumors [10]: significantly inhibits | colon cancer cell proliferation, effectiveness versus resveratrol and 4r ([5]; FIG. 14): significantly more effective than resveratrol, as well as compound 4r
